In ChEMBL document CHEMBL1155227, “Identification of N-(5-tert-butyl-isoxazol-3-yl)-N'-{4-[7-(2-morpholin-4-yl-ethoxy)imidazo[2,1-b][1,3]benzothiazol-2-yl]phenyl}urea dihydrochloride (AC220), a uniquely potent, selective, and efficacious FMS-like tyrosine kinase-3 (FLT3) inhibitor” (J Med Chem, 2009):

How the values were obtained:
[1] = biological target: T1, Receptor-type tyrosine-protein kinase FLT3 (Homo sapiens, UniProt P36888); assay: biochemical; type: cell-based, HEK293
T1 sequence (P36888 whole entry): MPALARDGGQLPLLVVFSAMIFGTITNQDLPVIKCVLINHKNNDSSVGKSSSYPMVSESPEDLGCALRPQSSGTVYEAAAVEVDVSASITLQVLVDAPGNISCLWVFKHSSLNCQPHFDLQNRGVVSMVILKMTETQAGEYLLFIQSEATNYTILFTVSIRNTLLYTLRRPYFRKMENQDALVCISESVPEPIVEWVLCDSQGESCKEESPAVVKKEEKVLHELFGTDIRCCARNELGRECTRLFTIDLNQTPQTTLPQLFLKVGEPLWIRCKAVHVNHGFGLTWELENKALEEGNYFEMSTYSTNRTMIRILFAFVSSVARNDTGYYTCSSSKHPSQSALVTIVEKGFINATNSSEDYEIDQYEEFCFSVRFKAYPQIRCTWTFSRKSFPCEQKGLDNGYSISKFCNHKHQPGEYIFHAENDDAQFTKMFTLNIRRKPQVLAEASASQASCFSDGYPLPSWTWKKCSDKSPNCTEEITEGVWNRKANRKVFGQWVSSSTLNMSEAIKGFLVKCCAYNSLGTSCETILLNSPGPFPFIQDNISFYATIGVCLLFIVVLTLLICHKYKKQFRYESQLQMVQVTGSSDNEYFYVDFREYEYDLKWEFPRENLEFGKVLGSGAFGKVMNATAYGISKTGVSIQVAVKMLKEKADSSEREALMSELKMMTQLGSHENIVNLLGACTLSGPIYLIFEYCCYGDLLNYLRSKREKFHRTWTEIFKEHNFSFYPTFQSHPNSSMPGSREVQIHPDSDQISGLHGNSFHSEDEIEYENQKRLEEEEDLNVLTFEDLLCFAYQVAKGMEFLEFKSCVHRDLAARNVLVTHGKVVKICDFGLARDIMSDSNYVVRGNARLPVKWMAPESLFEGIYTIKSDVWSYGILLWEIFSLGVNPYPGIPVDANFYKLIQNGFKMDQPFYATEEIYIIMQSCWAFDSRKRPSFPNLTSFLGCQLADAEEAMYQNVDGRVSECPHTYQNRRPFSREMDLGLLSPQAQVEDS
Description: Binding affinity to FLT3 catalytic domain expressed in HEK293 cells by competitive binding assay

MV4-11 = assay: cells; details: Homo sapiens, MV4-11, 72 h
Description: Antiproliferative activity against human MV4-11 cells after 72 hrs by cell titer-blue cell viability assay

in vivo [2] = details: athymic nude, mouse, po, 10 mg/kg
Description: Cmax in athymic nude mouse at 10 mg/kg, po

in vivo [3] = details: athymic nude, mouse, plasma, po, 10 mg/kg
Description: AUC (0 to infinity) in athymic nude mouse at 10 mg/kg, po

in vivo [4] = details: athymic nude, mouse, po, 10 mg/kg; remark: listed apart in the source
Description: Half life in athymic nude mouse at 10 mg/kg, po

Row | Kd [1] [nM] | IC50 (MV4-11) [nM] | Cmax (in vivo [2]) [nM] | AUC(0-inf) (in vivo [3]) [µM·h] | half-life (in vivo [4]) [h] | Structure (SMILES)
1 | 1.3 | 0.53 | 2190 | 14.6 | 2.3 | CC(C)(C)c1cc(NC(=O)Nc2ccc(-c3cn4c(n3)sc3cc(CCCN5CCOCC5)ccc34)cc2)no1
2 | 9.7 | 1.1 | 1580 | 11.7 | 4.6 | CC(C)(C)c1cc(NC(=O)Nc2ccc(-c3cn4c(n3)sc3cc(OCCCN5CCN(S(C)(=O)=O)CC5)ccc34)cc2)no1
3 | 1.3 | 0.41 | – | – | – | CC(C)(C)c1cc(NC(=O)Nc2ccc(-c3cn4c(n3)sc3cc(CCC(=O)O)ccc34)cc2)no1
4 | 1.2 | 0.62 | – | – | – | CN1CCN(c2ccc3c(c2)sc2nc(-c4ccc(NC(=O)Nc5cc(C(C)(C)C)on5)cc4)cn23)CC1
5 | 1.5 | 0.88 | – | – | – | CC(C)(C)c1cc(NC(=O)Nc2ccc(-c3cn4c(n3)sc3cc(OCCN5CCCCC5)ccc34)cc2)no1
6 | 1.7 | 0.78 | – | – | – | CN1CCN(CCCOc2ccc3c(c2)sc2nc(-c4ccc(NC(=O)Nc5cc(C(C)(C)C)on5)cc4)cn23)CC1
7 | 2 | 0.66 | – | – | – | CCN1CCN(C(=O)CCc2ccc3c(c2)sc2nc(-c4ccc(NC(=O)Nc5cc(C(C)(C)C)on5)cc4)cn23)CC1
8 | 1.9 | 0.35 | – | – | – | CC(C)(C)c1cc(NC(=O)Nc2ccc(-c3cn4c(n3)sc3ccccc34)cc2)no1
9 | 0.98 | 0.41 | 490 | 0.67 | 6.7 | CCN1CCN(C(=O)c2ccc3c(c2)sc2nc(-c4ccc(NC(=O)Nc5cc(C(C)(C)C)on5)cc4)cn23)CC1
10 | 0.99 | 0.79 | – | – | – | CC(C)(C)c1cc(NC(=O)Nc2ccc(-c3cn4c(n3)sc3cc(OCCCN5CCOCC5)ccc34)cc2)no1
11 | 2.7 | 0.15 | – | – | – | CC(C)(C)c1cc(NC(=O)Nc2ccc(-c3cn4c(n3)sc3cc(O)ccc34)cc2)no1
12 | 2.3 | 0.56 | – | – | – | CC(C)(C)c1cc(NC(=O)Nc2ccc(-c3cn4c(n3)sc3ccc(OCCN5CCOCC5)cc34)cc2)no1
13 | 1.6 | 1 | 2090 | 21.3 | 4.5 | CC(C)(C)c1cc(NC(=O)Nc2ccc(-c3cn4c(n3)sc3cc(C(=O)O)ccc34)cc2)no1
14 | 1.1 | 0.38 | – | – | – | CCN1CCN(Cc2ccc3c(c2)sc2nc(-c4ccc(NC(=O)Nc5cc(C(C)(C)C)on5)cc4)cn23)CC1
15 | 1.5 | 0.23 | – | – | – | CC(C)(C)c1cc(NC(=O)Nc2ccc(-c3cn4c(n3)sc3cc(CCC(=O)N5CCOCC5)ccc34)cc2)no1
16 | 5.2 | 9.3 | – | – | – | CC(C)(C)c1cc(NC(=O)Nc2ccc(-c3cn4c(n3)sc3cccc(OCCN5CCOCC5)c34)cc2)no1
